This passage reports EC50 results from US20250042916A1 (ACONCAGUA BIO, INC., priority 2023, published 2025).

human calcitonin receptor (CTR) and RAMP3 (AMY3) in COS-7 cells, sequence (P30988 25-474): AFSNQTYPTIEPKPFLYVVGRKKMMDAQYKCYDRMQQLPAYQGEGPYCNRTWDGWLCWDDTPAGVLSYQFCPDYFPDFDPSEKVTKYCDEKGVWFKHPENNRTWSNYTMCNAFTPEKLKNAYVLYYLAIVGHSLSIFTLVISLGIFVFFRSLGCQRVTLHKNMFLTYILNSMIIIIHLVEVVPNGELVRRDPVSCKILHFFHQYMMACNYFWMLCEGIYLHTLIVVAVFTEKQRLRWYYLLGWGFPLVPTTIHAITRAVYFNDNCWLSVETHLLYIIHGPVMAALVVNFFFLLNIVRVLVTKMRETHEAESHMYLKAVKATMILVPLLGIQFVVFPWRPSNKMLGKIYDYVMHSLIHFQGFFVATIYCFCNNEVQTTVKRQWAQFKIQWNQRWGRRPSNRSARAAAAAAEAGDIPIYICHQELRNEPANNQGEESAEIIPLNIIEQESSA
human calcitonin receptor (CTR) and RAMP3 (AMY3) in COS-7 cells, sequence (O60896 24-148): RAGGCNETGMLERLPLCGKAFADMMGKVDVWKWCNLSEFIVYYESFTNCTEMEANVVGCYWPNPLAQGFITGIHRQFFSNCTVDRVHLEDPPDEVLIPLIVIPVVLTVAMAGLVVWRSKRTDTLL

This assay addresses human calcitonin receptor (CTR) and RAMP3 (AMY3) in COS-7 cells (Homo sapiens, UniProt O60896+P30988). Nature of the assay: Amylin Receptor cAMP Assay I. The assay is classed as cell-based. The conditions noted are these: values marked *: Amylin Receptor cAMP Assay I; COS-7/AMY3 cells; read-out: Amylin Receptor cAMP Stimulation Activity: EC50. The procedure, abridged: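 COS-7 cells stably co-expressing human CTR and RAMP3 (AMY3) were stimulated with serially diluted compounds (4-fold) in DPBS with 0.5 mM IBMX and 0.1% BSA for 30 min at 37 °C, 1000 cells/well. cAMP accumulation was measured by HTRF (cAMP-d2/anti-cAMP cryptate, 1 h RT) read at 665/615 nm.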
`Cc1nnc(-c2c(CCN3CCCCC3)nc(CC(C)C)c(C(N)=O)c2-c2ccc(C(=O)NCc3ccc(F)c(F)c3)s2)o1` [Compound 179, 4-(5-((3,4-difluorobenzyl)carbamoyl)thiophen-2-yl)-2-isobutyl-5-(5-methyl-1,3,4-oxadiazol-2-yl)-6-(2-(piperidin-1-yl)ethyl)nicotinamide]: the EC50 was above 1000 nM.
As for `Cc1nnc(-c2c(CC3COc4ccccc4O3)nc(CC(C)C)c(C(N)=O)c2-c2ccc(C(=O)NCc3ccc(F)c(F)c3)s2)o1` (stereo not shown) [Compound 180, 4-(5-((3,4-difluorobenzyl)carbamoyl)thiophen-2-yl)-6-((2,3-dihydrobenzo[b][1,4]dioxin-2-yl)methyl)-2-isobutyl-5-(5-methyl-1,3,4-oxadiazol-2-yl)nicotinamide], the figure is 138 nM; as for `Cc1nnc(-c2c(CN3Cc4ccccc4C3=O)nc(CC(C)C)c(C(N)=O)c2-c2ccc(C(=O)NCc3ccc(F)c(F)c3)s2)o1` [Compound 181], 9320 nM.
Then `Cc1nnc(-c2c(CCC(=O)N3CCCC3)nc(CC(C)C)c(C(N)=O)c2-c2ccc(C(=O)NCc3ccc(F)c(F)c3)s2)o1` [Compound 182], with 23300 nM; and `Cc1ccn(CCc2nc(CC(C)C)c(C(N)=O)c(-c3ccc(C(=O)NCc4ccc(F)c(F)c4)s3)c2-c2nnc(C)o2)n1` [Compound 183, 4-(5-((3,4-difluorobenzyl)carbamoyl)thiophen-2-yl)-2-isobutyl-5-(5-methyl-1,3,4-oxadiazol-2-yl)-6-(2-(3-methyl-1H-pyrazol-1-yl)ethyl)nicotinamide], with 1910 nM.
As to `Cc1nnc(-c2c(CCc3cnn(C)c3)nc(CC(C)C)c(C(N)=O)c2-c2ccc(C(=O)NCc3ccc(F)c(F)c3)s2)o1` [Compound 184, 4-(5-((3,4-difluorobenzyl)carbamoyl)thiophen-2-yl)-2-isobutyl-5-(5-methyl-1,3,4-oxadiazol-2-yl)-6-(2-(1-methyl-1H-pyrazol-4-yl)ethyl)nicotinamide], the EC50 came out at 1070 nM.
Regarding `Cc1nnc(-c2c(CC(O)c3ccc(F)cc3)nc(CC(C)C)c(C(N)=O)c2-c2ccc(C(=O)N[C@@H]3CCc4ccccc43)s2)o1` (stereo partly drawn) [Compound 185, 4-(5-(((R)-2,3-dihydro-1H-inden-1-yl)carbamoyl)thiophen-2-yl)-6-(2-(4-fluorophenyl)-2-hydroxyethyl)-2-isobutyl-5-(5-methyl-1,3,4-oxadiazol-2-yl)nicotinamide], the EC50 was 507 nM.
In the case of `COC(Cc1nc(CC(C)C)c(C(N)=O)c(-c2ccc(C(=O)NCc3ccc(F)c(F)c3)s2)c1-c1nnc(C)o1)c1ccc(F)cc1` (stereo not shown) [Compound 186, 4-(5-((3,4-difluorobenzyl)carbamoyl)thiophen-2-yl)-6-(2-(4-fluorophenyl)-2-methoxyethyl)-2-isobutyl-5-(5-methyl-1,3,4-oxadiazol-2-yl)nicotinamide], the concentration for a half-maximal effect (EC50) was found to be 123 nM.
`Cc1nnc(-c2c(CC(F)c3ccc(F)cc3)nc(CC(C)C)c(C(N)=O)c2-c2ccc(C(=O)N[C@@H]3CCc4ccccc43)s2)o1` (stereo partly drawn) [Compound 187, 4-(5-(((R)-2,3-dihydro-1H-inden-1-yl)carbamoyl)thiophen-2-yl)-6-(2-fluoro-2-(4-fluorophenyl)ethyl)-2-isobutyl-5-(5-methyl-1,3,4-oxadiazol-2-yl)nicotinamide]: the EC50 worked out at 99.3 nM.
As for `Cc1nnc(-c2c(CCC(F)F)nc(CC(C)C)c(C(N)=O)c2-c2ccc(C(=O)NCc3ccc(F)c(F)c3)s2)o1` [Compound 189, 4-(5-((3,4-difluorobenzyl)carbamoyl)thiophen-2-yl)-6-(3,3-difluoropropyl)-2-isobutyl-5-(5-methyl-1,3,4-oxadiazol-2-yl)nicotinamide], the figure is above 1000 nM; as for `Cc1nnc(-c2c(CC(C)c3ccc(F)cc3)nc(CC(C)C)c(C(N)=O)c2-c2ccc(C(=O)N[C@@H]3CCc4ncccc43)s2)o1` (stereo partly drawn) [Compound 191, 4-(5-(((R)-6,7-dihydro-5H-cyclopenta[b]pyridin-5-yl)carbamoyl)thiophen-2-yl)-6-(2-(4-fluorophenyl)propyl)-2-isobutyl-5-(5-methyl-1,3,4-oxadiazol-2-yl)nicotinamide], 1080 nM; as for `Cc1nnc(-c2c(CC3CC3(F)F)nc(CC(C)C)c(C(N)=O)c2-c2ccc(C(=O)NCc3ccc(F)c(F)c3)s2)o1` (stereo not shown) [Compound 192, 4-(5-((3,4-difluorobenzyl)carbamoyl)thiophen-2-yl)-6-((2,2-difluorocyclopropyl)methyl)-2-isobutyl-5-(5-methyl-1,3,4-oxadiazol-2-yl)nicotinamide], above 1000 nM.
As for `Cc1nnc(-c2c(CC3CC(F)(F)C3)nc(CC(C)C)c(C(N)=O)c2-c2ccc(C(=O)NCc3ccc(F)c(F)c3)s2)o1` [Compound 193, 4-(5-((3,4-difluorobenzyl)carbamoyl)thiophen-2-yl)-6-((3,3-difluorocyclobutyl)methyl)-2-isobutyl-5-(5-methyl-1,3,4-oxadiazol-2-yl)nicotinamide], the figure is 3550 nM; as for `Cc1nnc(-c2c(C34CC(C(F)(F)F)(C3)C4)nc(CC(C)C)c(C(N)=O)c2-c2ccc(C(=O)NCc3ccc(F)c(F)c3)s2)o1` [Compound 194, 4-(5-((3,4-difluorobenzyl)carbamoyl)thiophen-2-yl)-2-isobutyl-5-(5-methyl-1,3,4-oxadiazol-2-yl)-6-(3-(trifluoromethyl)bicyclo[1.1.1]pentan-1-yl)nicotinamide], 3400 nM.
As for `Cc1ccc(CCc2nc(CC(C)C)c(C(N)=O)c(-c3ccc(C(=O)N[C@@H]4CCc5ncccc54)s3)c2-c2nnc(C)o2)nc1` [Compound 195, (R)-4-(5-((6,7-dihydro-5H-cyclopenta[b]pyridin-5-yl)carbamoyl)thiophen-2-yl)-2-isobutyl-5-(5-methyl-1,3,4-oxadiazol-2-yl)-6-(2-(5-methylpyridin-2-yl)ethyl)nicotinamide], the figure is 39900 nM; as for `Cc1nnc(-c2c(CCC3CCOCC3)nc(CC(C)C)c(C(N)=O)c2-c2cc3ccnc(N[C@@H]4CCc5ncccc54)c3s2)o1` [Compound 196, (R)-4-(7-((6,7-dihydro-5H-cyclopenta[b]pyridin-5-yl)amino)thieno[2,3-c]pyridin-2-yl)-2-isobutyl-5-(5-methyl-1,3,4-oxadiazol-2-yl)-6-(2-(tetrahydro-2H-pyran-4-yl)ethyl)nicotinamide], 279 nM; as for `COc1cccc2c1CC[C@H]2Nc1nccc2cc(-c3c(C(N)=O)c(CC(C)C)nc(CCC4CCOCC4)c3-c3ncc(C)o3)sc12` [Compound 198, (R)-2-isobutyl-4-(7-((4-methoxy-2,3-dihydro-1H-inden-1-yl)amino)thieno[2,3-c]pyridin-2-yl)-5-(5-methyloxazol-2-yl)-6-(2-(tetrahydro-2H-pyran-4-yl)ethyl)nicotinamide], 229 nM.
With `CCc1nc(CC(C)C)c(C(N)=O)c(-c2ccc(C(=O)NCc3ccc(F)c(F)c3)cc2)c1-c1nnc(C)o1` [Compound 199, 4-(4-((3,4-difluorobenzyl)carbamoyl)phenyl)-6-ethyl-2-isobutyl-5-(5-methyl-1,3,4-oxadiazol-2-yl)nicotinamide], the EC50 was above 1000 nM.
As for `Cc1nnc(-c2c(CCc3ccc(F)cc3)nc(CC(C)C)c(C(N)=O)c2-c2cc3ccnc(NCc4ccccn4)c3s2)o1` [Compound 200, 6-(4-fluorophenethyl)-2-isobutyl-5-(5-methyl-1,3,4-oxadiazol-2-yl)-4-(7-((pyridin-2-ylmethyl)amino)thieno[2,3-c]pyridin-2-yl)nicotinamide], the figure is 273 nM; as for `Cc1nnc(-c2c(CCc3ccc(F)cc3)nc(CC(C)C)c(C(N)=O)c2-c2cc3ccnc(NCc4cccnc4)c3s2)o1` [Compound 201, 6-(4-fluorophenethyl)-2-isobutyl-5-(5-methyl-1,3,4-oxadiazol-2-yl)-4-(7-((pyridin-3-ylmethyl)amino)thieno[2,3-c]pyridin-2-yl)nicotinamide], 381 nM; as for `Cc1nnc(-c2c(CCc3ccc(F)cc3)nc(CC(C)C)c(C(N)=O)c2-c2cc3ccnc(NCc4ccncc4)c3s2)o1` [Compound 202, 6-(4-fluorophenethyl)-2-isobutyl-5-(5-methyl-1,3,4-oxadiazol-2-yl)-4-(7-((pyridin-4-ylmethyl)amino)thieno[2,3-c]pyridin-2-yl)nicotinamide], 242 nM.
Then `CC(C)Cc1nc(CCc2ccc(F)cc2)c(-c2ccn(C)n2)c(-c2ccc(C(=O)NCc3ccc(F)c(F)c3)s2)c1C(N)=O` [Compound 204, 4-(5-((3,4-difluorobenzyl)carbamoyl)thiophen-2-yl)-6-(4-fluorophenethyl)-2-isobutyl-5-(1-methyl-1H-pyrazol-3-yl)nicotinamide], with 67.3 nM.
